Experimental data: publication PMC9249674, “A small-molecule Skp1 inhibitor elicits cell death by p53-dependent mechanism” (iScience, 2022)

What was measured:
[1] = target: T1, ΔSkp1^1−140 (Homo sapiens, UniProt P63208); assay: Thermal shift assay (TSA); type: binding; conditions: protein 8 μM
T1 construct: pETDuet-Skp1(1-140); His6; made in house; host or cells: Escherichia coli BL21 (DE3)
From the text: (§1) TSA, also known as differential scanning fluorimetry (DSF), is used to identify the contribution of a ligand binding to an unfolding protein as a function of temperature. The detection involves increase in fluorescence of a fluorophore SYPRO Orange (Invitrogen) upon binding to the hydrophobic regions of the gradually unfolded protein. A ligand stabilizing a protein may increase the melting temperature (Tm). To detect the binding of Z0933M with Skp1, a gradient TSA was used, in which, protein samples were mixed with appropriate concentrations of ligand over the range of several folds. The protein (Skp1^WT or ΔSkp1^1−140) was kept constant at 8 μM, and the compound concentration was varied from 50 μM to 600 μM. For comparison with 6-OAP, a single concentration of 400 μM was tested with both Skp1^WT and ΔSkp1^1−140. All reactions were set up in final volume of 10 μL in 96-well plate with 1x SYPRO Orange (Invitrogen) and incubated with compounds on ice for 30 min. According to the experimental protocol, samples were heated at 0.5°C per minute, ranging from 30 to 90°C, and the fluorescence intensity was measured at the interval of 0.5°C. Appropriate buffer blank and protein-only controls were kept, and the shift in Tm was measured as ΔTm = Tm (ligand-protein) ‒ (protein-only). The resultant ΔTm values were plotted by using GraphPad Prism® v6.0 (San Diego, CA) and ORIGIN Lab softwares.

[2] = target: T2, Skp1^WT (Homo sapiens, UniProt P63208); assay: Thermal shift assay (TSA); type: binding; conditions: protein 8 μM
T2 construct: recombinantly purify intact (Skp1^WT) and truncate (ΔSkp1^1−140; lacking H8-helix) forms of Skp1; His6; made in house; host or cells: Escherichia coli BL21 (DE3)
From the text: as §1

[3] = test system: H358 cells; assay: Caspase-Glo 3/7 activity; type: cell-based; conditions: dose- and time-dependent treatment
Description: The activities of caspase-3/7, −8 and −9 were measured using Caspase-Glo® 3/7,8, and 9 assay kits (Promega, Madison, WI, USA) according to the manufacturer’s protocol. Briefly, the cells were plated over-night in a white 384 well microplate, and then treated as indicated with Z0933M. After treatment, 25 μL of each caspase substrate was added and incubated at room temperature for 30 min. Upon activation of caspase in the apoptotic cells, the substrate will give a luminescence signal after cleavage of the aminoluciferin-labelled synthetic tetrapeptide. Luminescent signals were detected using an EnSpire multimode plate reader (PerkinElmer). For inhibitor interventions and Skp1 overexpression, the experiments were performed in 96 well format.

[4] = target: T2, Skp1^WT; assay: SPRi assay; type: binding
Description: Freshly deposited gold coated standard SPRi chips/slides (Plexera, LLC) were cleaned, and compound(s) at 10 mM concentration in 100% DMSO were spotted on the chips using a micropipette. After this, the slides were left for complete evaporation of DMSO (under vacuum) at room temperature for 2 hrs. After printing, the slides were exposed to UV irradiation 2.4 J/cm^2 (365 nm) in a UV chamber (Amersham life science). The slides were subsequently washed with DMSO, ethanol, and finally with distilled water for 15 minutes (ultrasonically), respectively, to remove non-covalently bound compounds. After drying with nitrogen, the slides were assembled with flow cell and then mounted on SPRi instrument for measurement, or stored at 4°C to be used for later experiments.
All the experiments were carried out using the PlexArray® HT system (Plexera, LLC), which is based on surface plasmon resonance imaging. Oval regions of interests (ROIs) were set as 9 pixels × 7 pixels area in imaging area. ROIs of vehicle (DMSO) were used as controls for measurement of specific signals. All samples were injected with an association and dissociation flow rate of 3 μL s^−1 and at 25°C. A 1:3 mixture of glycine. HCL (pH 4.2) and 0.5% (v/v) SDS, respectively, was used to regenerate the surface and remove bound proteins from the small molecules enabling the sensor chip to be reused for additional analyte injections. […]

[5] = target: T1, ΔSkp1^1−140; assay: LC-MS/MS analysis of in vitro binding; conditions: ΔSkp1^1−140, overnight incubation
[6] = test system: Skp1-ΔF-box complex; assay: LC-MS/MS analysis of in vitro binding; conditions: overnight incubation
[7] = target: T2, Skp1^WT; assay: LC-MS/MS analysis of in vitro binding; conditions: overnight incubation

T1 sequence (P63208 1-140, stated change not applied): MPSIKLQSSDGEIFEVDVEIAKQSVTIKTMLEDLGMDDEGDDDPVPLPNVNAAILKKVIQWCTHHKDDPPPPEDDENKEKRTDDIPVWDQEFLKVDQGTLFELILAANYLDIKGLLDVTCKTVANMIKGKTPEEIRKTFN
T2 sequence (P63208 whole entry, the tested form may be a part): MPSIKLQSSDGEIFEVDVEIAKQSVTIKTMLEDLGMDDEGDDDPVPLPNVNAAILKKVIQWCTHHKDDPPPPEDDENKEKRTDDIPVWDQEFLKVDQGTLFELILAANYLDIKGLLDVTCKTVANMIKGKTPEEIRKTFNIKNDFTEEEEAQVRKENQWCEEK

Q: What does the source list for `Nc1ccc(-c2nc3ccccc3c3[nH]c4ccccc4c23)cc1` [Z0933M]?
A: ΔTm at 50 µM ([1]; 50 μM compound): 0.9 °C; ΔTm at 100 µM ([1]; 100 μM compound): 0.6 °C; ΔTm at 200 µM ([1]; 200 μM compound): 2.1 °C; ΔTm at 400 µM ([1]; 400 μM compound): 10.8 °C; ΔTm at 600 µM ([1]; 600 μM compound): 11.1 °C; ΔTm at 50 µM ([2]; 50 μM compound): 0.3 °C; ΔTm at 100 µM ([2]; 100 μM compound): 0.6 °C; ΔTm at 200 µM ([2]; 200 μM compound): 2.4 °C; ΔTm at 400 µM ([2]; 400 μM compound): 7.8 °C; ΔTm at 600 µM ([2]; 600 μM compound): 10.5 °C; caspase 3/7 activity [3]: failed to do so; Kd ([4]; SPRi, Skp1^WT): 0.0547 ± 0.00668 µM; Kd ([4]; as given in the summary): ~0.054 µM; binding by LC-MS/MS [5]: robust binding; binding by LC-MS/MS [6]: robust binding; binding by LC-MS/MS [7]: robust binding
